The source made the active and inactive calls. The rule behind the calls is not given here.

In experiment [1] the test system is Botrytis cinerea. The experiment in a line: Antifungal activity against Botrytis cinerea at 100 ppm for 3 days by centerpoint incubation disk assay. In kind it is functional, organism-based.
The test system of experiment [2] is Botrytis cinerea. The experiment in a line: Antifungal activity against Botrytis cinerea at 17 ppm for 3 days by centerpoint incubation disk assay. Format: functional. Conditions: 72 h, read-out: IZ.
Experiment [3] deals with Botrytis cinerea. In words: Antifungal activity against Botrytis cinerea by centerpoint incubation disk assay. In kind it is functional, organism-based.
The test system of experiment [4] is Botrytis cinerea. In words: Antifungal activity against Botrytis cinerea at 130 ppm for 5 days by centerpoint incubation disk assay. In kind it is functional. Conditions: 120 h, read-out: IZ.

Take `CC1(C)C[C@@]2(C)CCC[C@]3(C)CC[C@@H]1[C@]32O`: the outcome in experiment [1] was Active. The zone of inhibition at 17 ppm in experiment [2] came to 20 mm.
For the compound `CC1=CC[C@@H]2[C@H]3[C@@H]1CC[C@@]3(C)CC2(C)C`, in experiment [3], the outcome was inactive.
In the case of `CC1(C)C[C@@]2(O)[C@]3(C)CCC[C@@]2(C)[C@H]1CC3` [ACETYLGINSENOL], the result in experiment [1] was Active. Further, in experiment [4], the zone of inhibition at 130 ppm was 6 mm.
